Test results reported in paper PMC10135378, “Synthesis of Novel N-Heterocyclic Carbene-Ruthenium (II) Complexes, “Precious” Tools with Antibacterial, Anticancer and Antioxidant Properties” (Antibiotics, 2023).
One block for each molecule: values may come before it.

What was measured:
[1] = tested on: Staphylococcus aureus (ATCC 23235); assay: MIC/MBC broth dilution, S. aureus; assay type: cell-based; settings: control for strain sensitivity
Procedure: (§1) One Gram-negative (Escherichia coli (ATCC® 25922TM)) and two Gram-positive bacterial strains (Enterococcus faecalis (ATCC® 19433TM) and Staphylococcus aureus (ATCC® 23235TM)] were used for MIC and MBC values determination, according to CLSI guidelines. MIC represents the lowest concentration of compound inhibiting the visible microbial growth and expressed as μg/mL; MBC is the lowest concentration able to kill the bacteria. Both determinations were performed by the broth dilution method. Bacteria were grown overnight in LB medium (2%), then diluted to a density of […] colony forming units (CFUs) per mL, plated in sterile 96-well microplates, obtaining about 10^5 cells/ well. Increasing concentrations of the Ru-NHC complexes (1, 10, 25, 50, 70, 100 µg/mL) were used. After incubation at 37 °C for 18 h (overnight), bacterial growth was checked at a wavelength of 600 nm using a Multiskan spectrophotometer (model Multiskan Ex Microplate; Thermo Scientific, Nyon, Switzerland) and MIC or MBC values were determined, comparing cell density with a positive control (bacterial cells grown in LB medium were added with only the vehicle, DMSO). Each experiment was carried out five times, in triplicate. Ampicillin (Sigma Aldrich A9393) was used as the control for strain sensitivity.

[2] = tested on: Enterococcus faecalis (ATCC 19433); assay: MIC/MBC broth dilution, E. faecalis; assay type: cell-based; settings: control for strain sensitivity
Procedure: as §1

[3] = tested on: Escherichia coli (ATCC 25922); assay: MIC/MBC broth dilution, E. coli; assay type: cell-based; settings: control for strain sensitivity
Procedure: as §1

[4] = tested on: MCF-7 cells; assay: MTT assay, anticancer activity on MCF-7 cells; assay type: cell-based, human; settings: 72 h exposure, 0.1-100 µM
Procedure: (§2) The anticancer activity of all the synthesized Ru-NHC complexes (RANHC I-VI) was studied in two human breast cancer cell lines, namely the estrogen receptor positive (ER+) MCF-7 cells and the triple negative MDA-MB-231 cells (ER-, PR-, and HER-2/Neu not overexpressed), and neuroblastoma cells, i.e., SH-SY5Y. First, the cells were exposed for 72 h at different concentrations of the studied complexes (from 0.1 to 100 µM) and then their viability was checked by MTT assay.
(§3) The adopted cells (breast cancer MCF-7 and MDA-MB-231 and human mammary epithelial MCF-10A cells) were purchased from American Type Culture Collection (ATCC, Manassas, VA, USA) and cultured as indicated. The mouse embryonic fibroblast BALB/3T3 and neuroblastoma SH-SY5Y were also obtained from American Type Culture Collection (ATCC, Manassas, VA, USA) and cultured in DMEM high glucose supplemented with 100 U mL^−1 penicillin/streptomycin and 10% bovine calf serum (BCS) or 10% fetal bovine serum (FBS), respectively.
(§4) MTT assay (Sigma Aldrich (St. Louis, MO, USA)) was used for the in vitro anticancer activity evaluation, as previously reported. The Ru-NHC complexes were employed at different concentrations (0.1–1–10–25–50–100 μM) for 72 h. The IC50 values were calculated from the percent (%) of control using GraphPad Prism 9 (GraphPad Software, La Jolla, CA, USA).

[5] = tested on: BALB/3T3 cells; assay: MTT assay, non-tumoral BALB/3T3 fibroblasts; assay type: cell-based; settings: 72 h exposure, non-tumoral mouse embryonic fibroblasts
Description: (§5) Additionally, we investigated the selectivity of all the synthesized Ru-NHC complexes on the cancer cells by studying their capability to interfere with the growth of two non-tumoral cells, namely the MCF-10A and BALB/3T3 cells.
as §3, §4

[6] = tested on: SH-SY5Y cells; assay: MTT assay, anticancer activity on SH-SY5Y neuroblastoma cells; assay type: cell-based; settings: 72 h exposure, 0.1-100 µM
Procedure: as §2, §3, §4

[7] = tested on: MCF-10A cells; assay: MTT assay, non-tumoral MCF-10A cells; assay type: cell-based, human; settings: 72 h exposure
Description: as §5, §3, §4

[8] = tested on: MDA-MB-231 cells; assay: MTT assay, anticancer activity on MDA-MB-231 cells; assay type: cell-based, human; settings: MTT, 72 h exposure, 0.1-100 µM
Procedure: as §2, §3, §4

[9] = ABTS radical scavenging assay; settings: 5 min, room temperature, 730 nm
Description: To further analyze the Ru-NHC complexes antiradical potential, we examined their capability to interfere with the ABTS radical cation, a well-known protonated radical with a characteristic maximal absorbance at 730 nm, which diminishes with the scavenging of the radical proton. The assay measures radical scavenging by the electron donation. The outcomes in terms of ABTS% scavenging activity are reported in Figure 7 and IC50 values of Ru-NHC complexes, together with the standard Trolox, on ABTS radical are summarized in Table 3 and Table S3.
The radical scavenging properties of the Ru-NHC complexes on a 2,2′-azino-bis(3-ethylbenzothiazoline-6-sulfonate) radical cation (ABTS^•+) were calculated as described by Fazio et al., with few adjustments. Briefly, 2 mM ABTS and 70 mM potassium persulfate water solutions were mixed and incubated to obtain ABTS^•+ radical stock solution (16 h, room temperature, in the dark). ABTS solution was diluted in ethanol to obtain an absorbance of 0.70 ± 0.02 at 730 nm, prior to use. Then, 2 μL of each Ru-NHC complex at different concentrations, properly dissolved in DMSO, were mixed with 198 μL of the ABTS^•+ solution in a 48-well plate obtaining the following concentrations: 0.1, 1, 10, 50, and 100 µg/mL. The solutions were vigorously shaken and incubated (5 min, room temperature, in the dark). The ABTS scavenging activity was determined at 730 nm, using a microplate reader. The control was prepared mixing 2 μL of DMSO with 198 μL of the ABTS^•+ solution. The ABTS radical scavenging was expressed as inhibition percentages (%IABTS) of each complex compared to the control, according to the formula: %IABTS=A0−A/A0×100 where A0 is the absorbance at 730 nm of the control reaction and A is the absorbance at 730 nm in the presence of samples.
IC50 values for the Ru complexes were calculated from the %IABTS using GraphPad Prism 9 software (GraphPad Inc., San Diego, CA, USA). Trolox was employed as the positive control.

[10] = DPPH radical scavenging assay; settings: 30 min, room temperature, 517 nm
Procedure: Generally, the DPPH radical is able to accept hydrogen radicals or an electron, turning into a stable molecule. The interaction with Ru-NHC complexes induces the reduction of DPPH radical intensity measured at 517 nm, due to the conversion of the purple DPPH radical into its corresponding yellow hydrazine form.
The radical scavenging properties of Ru-NHC complexes on the 1,1-diphenyl-2-picryl-hydrazil (DPPH) radical were evaluated as described by Fazio et al., with minor corrections. Then, 20 μL of each Ru complex, properly dissolved in DMSO, were mixed with methanol DPPH 0.1 mM (180 μL) in a 48-well plate obtaining […] different concentrations (10, 50, 100, 200 and 300 µg/mL). Next, 20 μL of DMSO in 180 μL of DPPH methanol solution was diluted as the control. The mixture was vigorously shaken and incubated (room temperature, 30 min, in the dark). The scavenging activity was measured at 517 nm, using a microplate reader. DPPH radical scavenging was expressed as inhibition percentages (%IDPPH) for the Ru complexes compared to the initial concentration of DPPH (control) according to the formula: %IDPPH=A0−A/A0×100 where A0 is the absorbance at 517 nm of the control reaction and A is the absorbance at 517 nm in the presence of samples.
The obtained IDPPH percentages allowed the IC50 values determination, using GraphPad Prism 9 software (GraphPad Inc., San Diego, CA, USA). Trolox was employed as a positive control.

Compound: CC1(C)S[C@@H]2[C@H](NC(=O)[C@H](N)c3ccccc3)C(=O)N2[C@H]1C(=O)O [ampicillin, Ampicillin, reference compound]
strain sensitivity to ampicillin, S. aureus [1]: ampicillin-sensible
strain sensitivity to ampicillin, E. faecalis [2]: ampicillin-sensible
strain sensitivity to ampicillin, E. coli [3]: ampicillin-sensible

Compound: N.N.[Cl][Pt][Cl] [Cisplatin, reference compound]
IC50 [4]: 26.2 ± 1.1 µM
IC50 [5]: 21.6 ± 1.2 µM
IC50 [6]: 18.8 ± 0.9 µM
IC50 [7]: 80.24 ± 0.8 µM
IC50 [8]: 32.1 ± 1 µM

IC50 [9]: 92.3 ± 0.9 µM
IC50 [10]: 99.91 ± 0.9 µM
Compound: Cc1c(C)c2c(c(C)c1O)CCC(C)(C(=O)O)O2 (stereo not shown) [Trolox, reference compound]
